Experimental data published in patent US20250375468A1, “NOVEL RAS INHIBITORS” (KHR Biotec GmbH, priority 2022, published 2025).

Key:
Test in all cases: NanoBit assay for RAS activation (RAS-LgBiT / CRAF RBD-SmBiT)
Type in all cases: cell-based
[1] = molecular target: T1, HRAS G12V (Homo sapiens, UniProt P01112, G12V); conditions: HRAS G12V with CRAF RBD, 2 h incubation with inhibitor, serum free DMEM
T1 construct: K, N and HRAS G12V (full length) was cloned with Xho I and Bgl Il to LgBit; expressed in transfected cells
Procedure: (§1) FIGS. 1a) and 1b): NanoBit assay for RAS activation (KRAS G12V, NRAS G12V, HRAS G12V)
(§2) N-terminal LgBiT and C-terminal SmBIT construct was purchased from Promega and K, N and HRAS G12V (full length) was cloned with Xho I and Bgl Il to LgBit and CRAF Ras binding domain (1-149) was cloned with EcoRI and Bgl Il to SmBit. For transfections, 1 μg or 2 μg of (12 well/6 well) plasmids were transfected into cells with 0.5 mM of PEI reagent in 100 μl or 200 μl PBS. One day after transfection, cells were harvested and seeded into 96 well white plates, half area (Greiner). After an additional day the medium was changed to serum free DMEM and the cells were incubated for 2 h with inhibitors. NanoGlo assay was performed according to the manufacturer's instructions. The luminescence was measured using Tecan infinite (Tecan).

[2] = molecular target: T2, KRAS G12V (Homo sapiens, UniProt P01116, G12V); conditions: KRAS G12V with CRAF RBD, 2 h incubation with inhibitor, serum free DMEM
T2 construct: K, N and HRAS G12V (full length) was cloned with Xho I and Bgl Il to LgBit; expressed in transfected cells
Procedure: as §1, §2

[3] = molecular target: T3, NRAS G12V (Homo sapiens, UniProt P01111, G12V); conditions: NRAS G12V with CRAF RBD, 2 h incubation with inhibitor, serum free DMEM
T3 construct: K, N and HRAS G12V (full length) was cloned with Xho I and Bgl Il to LgBit; expressed in transfected cells
T3 sequence (P01111 whole entry G12V): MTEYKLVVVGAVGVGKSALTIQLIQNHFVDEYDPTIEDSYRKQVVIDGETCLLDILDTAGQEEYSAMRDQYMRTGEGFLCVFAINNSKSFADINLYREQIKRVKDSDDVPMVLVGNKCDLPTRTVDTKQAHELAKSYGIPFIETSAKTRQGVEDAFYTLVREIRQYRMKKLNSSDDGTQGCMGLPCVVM
Procedure: as §1, §2

CC[PH](CC)(CC)[Au][S][C@@H]1O[C@H](COC(C)=O)[C@@H](OC(C)=O)[C@H](OC(C)=O)[C@H]1OC(C)=O [Auranofin, (2,3,4,6-Tetra-O-acetyl-1-thio-β-D-glucopyranosato)(triethylphosphan)gold]
inhibits: RAS activation (NanoBit luminescence), H-RAS [1] | RAS activation (NanoBit luminescence), K-RAS [2] | RAS activation (NanoBit luminescence), N-RAS [3]
